The values below come from patent publication US20250368633A1, “AZEPINE FUSED RING COMPOUND AS RIPK1 INHIBITOR AND USE THEREOF” (ARTIVILA BIOPHARMA, priority 2022, published 2025).

Test [1] concerns U937 cells. Description: Inhibition rate of compound (1 μM) on necroptosis of U937 cells (TSZ-induced, CellTiter-Glo). It counts as cell-based. The settings on record: TSZ (hTNF-α, SM-164, Z-VAD-FMK) 20 hours. The essentials: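 U937 cells were pretreated 15 min with compound, then necroptosis was triggered with TSZ (Z-VAD-FMK, hTNF-α, SM-164) for 20 h at 37° C. Viability was read as ATP by CellTiter-Glo luminescence, and inhibition (%) was taken relative to no-TSZ and TSZ-only wells.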
On the technique in general: Cellular ATP, detected with luciferase, serves as a proxy for viable cell number.

For test [2], the target named is T1, RIPK1 kinase (Homo sapiens, UniProt Q13546).
T1 construct: purchased Promega VA7593
T1 sequence (Q13546 1-671): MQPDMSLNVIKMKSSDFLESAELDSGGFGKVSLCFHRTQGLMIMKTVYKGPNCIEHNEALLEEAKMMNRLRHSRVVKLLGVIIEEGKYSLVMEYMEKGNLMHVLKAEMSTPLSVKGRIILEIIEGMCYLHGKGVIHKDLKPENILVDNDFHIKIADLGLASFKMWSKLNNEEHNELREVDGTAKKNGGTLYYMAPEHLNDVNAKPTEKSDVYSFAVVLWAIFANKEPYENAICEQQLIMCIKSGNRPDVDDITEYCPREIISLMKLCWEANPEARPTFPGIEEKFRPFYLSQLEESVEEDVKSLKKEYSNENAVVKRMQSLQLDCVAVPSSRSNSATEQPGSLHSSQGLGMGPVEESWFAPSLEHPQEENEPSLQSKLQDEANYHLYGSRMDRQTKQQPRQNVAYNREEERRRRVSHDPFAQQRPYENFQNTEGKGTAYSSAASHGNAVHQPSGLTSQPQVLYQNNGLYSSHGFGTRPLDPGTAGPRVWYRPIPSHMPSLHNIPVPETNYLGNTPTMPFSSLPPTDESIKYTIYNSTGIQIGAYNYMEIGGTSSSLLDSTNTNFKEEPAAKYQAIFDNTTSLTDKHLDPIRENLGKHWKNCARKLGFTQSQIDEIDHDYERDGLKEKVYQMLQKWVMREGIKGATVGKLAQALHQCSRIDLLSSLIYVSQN
Description: In vitro RIPK1 kinase activity assay (ADP-Glo), inhibition by compounds at 1 μM. It counts as biochemical. The settings on record: compound 1 μM; ATP 10 μM; MBP substrate 100 μg/mL; read-out: RIPK1 kinase activity inhibition rate range. The procedure, abridged: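 Compound and RIPK1 were preincubated 15 min at room temperature, then reacted 1 h with 10 μM ATP and 100 μg/mL MBP substrate in kinase buffer D. ADP formed was measured by ADP-Glo luminescence and converted to percent inhibition of kinase activity.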
In general terms: In ADP-Glo the light output rises with the ADP produced.

Broadly, the inhibition is the percentage by which the read-out fell short of the control.

For `C[C@@H](CNC(=O)C(=O)N[C@H]1COc2ccc(C#CCN3CCOCC3)cc2N(C)C1=O)c1ccccc1` [Example 159, N^1-((S)-5-methyl-7-(3-morpholinoprop-1-yn-1-yl)-4-oxo-2,3,4,5-tetrahydrobenzo[b][1,4]oxazepin-3-yl)-N^2-((R)-2-phenylpropyl)oxalamide], the “Inhibition rate range of compounds (1 μM) on U937 cell necroptosis” value in test [1] is “A (A: ≥90%)”. For the same compound, the inhibition at 1 µM in test [2] was at least 75%.
On to `CN1C(=O)C(NC(=O)C(=O)NCCc2cccc(F)c2)CCc2ccc(C#CCCO)cc21` (stereo not shown) [Example 167, N^1-(3-fluorophenethyl)-N^2-(8-(4-hydroxybut-1-yn-1-yl)-1-methyl-2-oxo-2,3,4,5-tetrahydro-1H-benzo[b]azepin-3-yl)oxalamide], for which the “Inhibition rate range of compounds (1 μM) on U937 cell necroptosis” value in test [1] was “A (A: ≥90%)”. Also, in test [2], the inhibition at 1 µM is at least 75%.
